In patent publication US20140243239A1, “MULTIPLEXED KINASE INHIBITOR BEADS AND USES THEREOF” (University of North Carolina at Chapel Hill, priority 2011, published 2014):

Experiments:
SUM159 cells = assay: SUM159 cell growth (Cell-Titer Glo, cell counts); format: cell-based, human; settings: 5 μM MEK inhibitor (FIG. 2A)
Protocol: (§1) Cell Culture: MDA-MB-231 cells were grown in DMEM/F12 supplemented with 10% FBS. SUM-159 cells were grown in DMEM/F12 supplemented with 10% FBS 1 μg/mL hydrocortisone, and 5 μg/mL insulin. SUM159-R cells were continually grown in the presence of 5 μM AZD6244. For SILAC labeling, cells were grown for five doublings in arginine- and lysine-depleted media (as above) supplemented with either unlabeled L-arginine (42 mg/L) and L-lysine (71 mg/L) or equimolar amounts of heavy isotope labeled [13C6,15N4]arginine (Arg10) and [13C6]lysine (Lys6) (Cambridge Isotope Laboratories). Proliferation was quantified using Cell-Titer Glo Luminescent Cell Viability Assay (Promega). Fresh media containing DMSO or kinase inhibitors was added daily and experiments were performed in triplicate.

MDA-MB-231 cells = assay: MDA-MB-231 cell growth (Cell-Titer Glo); format: cell-based, human; settings: 5 μM MEK inhibitor (FIG. 9A)
Protocol: as §1

SUM159-R cells = assay: Growth of AZD6244-resistant SUM159-R cells; format: cell-based, human; settings: 25 μM AZD6244
Protocol: as §1
(§2) Generation of AZD6244 resistant SUM159 cells: SUM159 cells were cultured in DMEM/F12 supplemented with 10% FBS media containing 5 μM AZD6244. Media was changed every 2 days, maintaining inhibitor concentrations of 5 μM AZD6244.

ERK1/2 [1] = assay: Western blot of MEK/ERK signaling in SUM159 cells; format: cell-based, human; settings: 15 min-4 h, SUM159 and MDA-MB-231 cells
Description: (§3) Detailed methods and antibodies are provided in Supplemental Experimental Procedures.
(§4) Western blotting: Proteins from cell lysates were separated by SDS-PAGE chromatography, transferred to nitrocellulose membranes, and probed with the indicated primary antibodies. Antibodies recognizing pAKT (S473), pAKT (T308), AURA, pAXL (Y702), AXL, c-Myc, DDR1, EGFR, pERK1/2 (T202/Y204), pHER3 (Y1197), MAX, pMEK1/2 (S217/S221), MEK1/2, MKP3, pP70S6K (T389), pPDGFRβ (Y751), pPDGFRβ (Y1009), pPDGFR (Y857), PDGFRβ, pRAF (S338), pRSK1 (T359/S363), pVEGFR2 (Y1175), VEGFR2 were obtained from Cell Signaling Technology. Antibodies for Cyclin A2, Cyclin B1, Cyclin D1, ERK2, RAF, and pRAF (S259) were obtained from Santa Cruz Biotechnology. The antibody recognizing Bim was obtained from Chemicon. The antibody recognizing p-c-Myc (S62) was obtained from Abeam. Secondary HRP-anti-rabbit and HRP-anti-goat secondary antibodies were from Jackson Immunoresearch Laboratories and Santa Cruz Biotechnology, respectively. Western blots were visualized by incubation with SuperSignal West Pico Chemiluminescent Substrate (Thermo Scientific).

RTKs [2] = assay: RTK tyrosine phosphorylation/expression in SUM159 cells (RTK arrays, western blot); format: cell-based, human; settings: 5 μM AZD6244; 50 nM BEZ235 (FIG. 3H)
Protocol: (§5) Western blotting and RTK arrays: Western blotting and RTK array analysis were performed as previously described (Amin et al., 2010). Amin et al. 2010 Sci Transl Med 2, 16ra17. Detailed methods and antibodies are provided in Supplemental Experimental Procedures.
as §4
RTK arrays: Cells were harvested in RTK array lysis buffer containing 20 mM Tris-HCl (pH 8.0), 1% NP-40, 10% glycerol, 137 mM NaCl, 2 mM EDTA, 1×EDTA-free protease inhibitor cocktail (Roche), and 1% each of phosphatase inhibitor cocktails 1 and 2 (Sigma). After incubating on ice for 20 minutes, cell debris was pelleted at 4° C. Lysates (500 μg protein) were applied to R&D Systems Proteome Profiler™ Human Phospho-RTK antibody arrays. Washing and secondary antibody steps were performed according to the manufacturer“s instructions. RTK arrays were visualized by SuperSignal West Pico Chemiluminescent Substrate (Thermo Scientific).

c-Myc = c-Myc protein and RNA levels in SUM159 cells (western blot, qRT-PCR); format: cell-based, human; settings: 5 μM AZD6244
Protocol: as §5
qRT-PCR: Total RNA was isolated from human breast cancer cell lines or murine tumors using the RNeasy® Plus Mini Kit (Qiagen). Real-time RT-PCR was performed on diluted cDNA using the Applied Biosystems 7500 Fast Real-Time PCR System (standard program) and inventoried TaqMan® Gene Expression Assays. Each cDNA sample was assayed in triplicate. Fold change with respect to the calibrator represents the average of the triplicate values, with error bars representing the range of the mean (95% confidence).
as §4

ERK1/2 [3] = assay: ERK activity in SUM159-R cells (western blot); format: cell-based, human
Protocol: as §3, §2, §4

C3Tag tumors = assay: In vivo tumorigenesis experiment, C3Tag TNBC GEMM (tumor volume); set-up: species or system mouse; settings: 21 days, AZD6244 20 mg/kg, sorafenib 30 mg/kg in diet
Protocol: In vivo tumorigenesis experiments: Animal handling and procedures were approved by the University of North Carolina at Chapel Hill Institutional Animal Care and Use Committee and followed the NIH guidelines. Male C3Tag mice were bred with wild type females to produce experimental offspring. Mice were examined for tumors weekly until a palpable mass was found. Treatment began the same day. Tumor size was assessed twice weekly by caliper measurements of tumor areas ((width)2×length))/2 for 21 days. Percent change of tumor volume was calculated using (Final volume−Initial Volume)/Initial Volume and graphed using R (http://www.r-project.org/). Drugs were incorporated into the diet of mice to achieve a daily dose of AZD6244 20 mg/kg and sorafenib 30 mg/kg. Food was provided ab libitum and the amount of daily food intake was pre-determined using Jackson Labs Phenome Database. Tumors at harvest were cut in half and either snap-frozen in liquid nitrogen and stored at −80° C. or placed in neutral buffered 10% formalin solution.

ERK = assay: MEK/ERK activation in C3Tag tumors (western blot); format: in vivo, mouse; settings: AZD6244 20 mg/kg 28 days; sorafenib 30 mg/kg 26 days
Protocol: (§6) Treatment began the same day. Tumor size was assessed twice weekly by caliper measurements of tumor areas ((width)2×length))/2 for 21 days. […] Drugs were incorporated into the diet of mice to achieve a daily dose of AZD6244 20 mg/kg and sorafenib 30 mg/kg. […] Tumors at harvest were cut in half and either snap-frozen in liquid nitrogen and stored at −80° C. or placed in neutral buffered 10% formalin solution.
as §4, with “Western blots were visualized by incubation with SuperSignal West Pico Chemiluminescent Substrate (Thermo Scientific).” left out

RTKs [4] = assay: RTK expression in C3Tag tumors (western blot); format: in vivo, mouse
Protocol: as §6, §4

With Cn1cnc2c(F)c(Nc3ccc(Br)cc3Cl)c(C(=O)NOCCO)cc21 [AZD6244] the “growth of SUM159 cells” value (SUM159 cells) was “inhibited growth”, the “growth of MDA-MB-231 cells” value (MDA-MB-231 cells) was “inhibited growth” and the “growth of SUM159-R cells” value (SUM159-R cells) was “growth arrested”. The “MEK and ERK, early response” value (ERK1/2 [1]) was “rapidly inhibited”, the RTK phosphorylation profile (RTKs [2]) was “induced PDGFRβ, VEGFR2 and AXL phosphorylation” and the “c-Myc protein and mRNA” value (c-Myc) was “rapid loss of c-Myc protein and c-Myc mRNA”. The “ERK activation in SUM159-R cells” value (ERK1/2 [3]; 25 μM AZD6244) was “inhibited ERK activation”, the “ERK activity in SUM159-R cells” value (ERK1/2 [3]; 50 μM AZD6244) was “can be inhibited” and the “mice with tumor regression” value (C3Tag tumors) was 30%. For the same compound, the “tumor MEK and ERK compared to untreated animals” value (ERK) was “strongly activated”, the “expression of RTKs in C3Tag tumors versus untreated” value (RTKs [4]; AZD6244 20 mg/kg 28 days, sorafenib 30 mg/kg 26 days) was “elevated” and the “PDGFRβ expression in C3Tag tumors” value (RTKs [4]; AZD6244 20 mg/kg, 2 and 7 days) was “strongly induced”.
